The values below come from US4798843A, “2-mercaproimidazole dopamine-β-hydroxylase inhibitors” (SmithKline Beckman Corporation, priority 1987, dated 1989).

Data set [1] concerns the target T1, DBH (Bos taurus, UniProt P15101).
T1 sequence (P15101 1-610): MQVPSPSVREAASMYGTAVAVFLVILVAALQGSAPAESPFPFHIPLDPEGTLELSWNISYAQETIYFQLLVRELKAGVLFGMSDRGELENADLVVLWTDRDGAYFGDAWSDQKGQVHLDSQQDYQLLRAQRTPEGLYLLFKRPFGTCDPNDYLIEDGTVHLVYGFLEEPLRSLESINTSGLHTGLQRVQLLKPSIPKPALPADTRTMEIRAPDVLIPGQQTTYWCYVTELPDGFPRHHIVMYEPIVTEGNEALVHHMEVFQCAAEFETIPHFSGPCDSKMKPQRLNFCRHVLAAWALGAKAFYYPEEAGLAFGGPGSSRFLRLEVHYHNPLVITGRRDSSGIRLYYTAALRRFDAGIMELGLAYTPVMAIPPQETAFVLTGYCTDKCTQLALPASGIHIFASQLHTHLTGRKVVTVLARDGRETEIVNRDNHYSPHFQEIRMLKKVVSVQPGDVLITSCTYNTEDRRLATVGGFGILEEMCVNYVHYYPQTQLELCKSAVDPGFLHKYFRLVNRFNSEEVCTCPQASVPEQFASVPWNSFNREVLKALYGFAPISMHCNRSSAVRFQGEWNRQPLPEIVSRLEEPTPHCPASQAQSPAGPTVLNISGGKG
Nature of the data set: in vitro DBH inhibition, conversion of tyramine to octopamine in the presence of DBH (spectrophotometric at 330 nm). The format is biochemical. To be noted: for DBH inhibition: @ 10^-4 (molar concentration); for IC50: molar concentration of compound at which DBH activity was halved. The method, then: Listed in Table I are Formula II compounds that were tested for in vitro DBH inhibition by a standard procedure for assaying conversion of tyramine to octopamine in the presence of DBH. J. J. Pisano, et al., Biochim. Biophys. Acta, 43, 566-568 (1960). Octopamine was assayed following sodium periodate oxidation to p-hydroxybenzaldehyde by measuring spectrophotometric absorbance at 330 nm. In Table I, inhibition is given in molar concentration of compound at which DBH activity was halved (IC50). Fusaric acid, by this test has an IC50 of 8×10^-7 M.

Data set [2] deals with T2, DBH (Homo sapiens, UniProt P09172).
T2 sequence (P09172 1-617): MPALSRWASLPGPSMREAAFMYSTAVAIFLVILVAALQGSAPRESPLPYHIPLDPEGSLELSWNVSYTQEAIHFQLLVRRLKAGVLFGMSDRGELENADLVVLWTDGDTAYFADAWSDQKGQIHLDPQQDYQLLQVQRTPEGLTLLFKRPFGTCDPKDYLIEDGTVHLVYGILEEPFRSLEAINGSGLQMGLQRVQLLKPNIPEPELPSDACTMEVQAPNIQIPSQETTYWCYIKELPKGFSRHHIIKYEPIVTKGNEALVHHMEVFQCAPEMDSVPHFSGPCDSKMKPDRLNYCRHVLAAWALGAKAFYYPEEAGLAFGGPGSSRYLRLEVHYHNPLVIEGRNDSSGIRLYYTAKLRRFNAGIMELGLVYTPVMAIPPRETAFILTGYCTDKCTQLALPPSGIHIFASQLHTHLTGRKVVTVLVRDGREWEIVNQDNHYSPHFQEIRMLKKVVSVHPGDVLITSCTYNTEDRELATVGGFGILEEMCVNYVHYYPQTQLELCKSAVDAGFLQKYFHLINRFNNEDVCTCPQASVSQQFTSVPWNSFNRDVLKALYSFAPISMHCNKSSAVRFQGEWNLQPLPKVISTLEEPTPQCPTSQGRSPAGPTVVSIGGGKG
To be noted: cited from earlier work.

Data set [3] can be described thus: mean arterial blood pressure in spontaneously hypertensive rats. To be noted: 50 mg/kg intraperitoneally. The format is in vivo. How it is done:
Further, spontaneously hypertensive rats were treated with 5-benzyl-2-mercaptoimidazole at a dose of 50 mg/kg intraperitoneally, and mean arterial blood pressure was monitored for 260 minutes using indwelling cannulae in the tail arteries. […] The maximal blood pressure reduction was approximately 25 mmHg.

The conditions of data set [4]: Ehrreich et al.; cited from earlier work.
The conditions of data set [5]: Teresawa et al.; cited from earlier work.

On to `COc1ccc(CCCc2cnc(S)[nH]2)cc1` [5-(3-(4-Methoxyphenyl)propyl)-2-mercaptoimidazole], for which the DBH inhibition in data set [1] is reported as 39%. Consider `CN(C)C(=S)SCc1ccc(C(=O)O)nc1` [5-(dimethyldithiocarbamoylmethyl)picolinic acid], for which the “DBH inhibition (in words)” value in data set [2] is given as “DBH inhibitors”. Turning to `O=C(O)c1ccc(CCCCCl)cn1` [5 (4 chlorobutyl) picolinic acid], in data set [2], the “DBH inhibition (in words)” value is recorded as “inhibit DBH”.

Take `Sc1ncc(Cc2ccccc2)[nH]1` [5-benzyl-2-mercaptoimidazole]: the “time to significant blood pressure reductions vs vehicle-treated controls” value in data set [3] (indwelling cannulae in tail arteries) is ≤ 30 min. Besides, in data set [3] (monitored for 260 minutes), the “maximal blood pressure reduction” value is “approximately 25 mmHg” and the “time of lowest blood pressure” value was “exhibited their lowest blood pressures when monitoring was discontinued”.

Take `Oc1ccc(CCCc2cnc(S)[nH]2)cc1` [5-(3-(4-Hydroxyphenyl)propyl)-2-mercaptoimidazole]: the DBH inhibition in data set [1] is reported as 29%.

Regarding `Sc1nc(-c2ccccc2)c[nH]1` [5-Phenyl-2-mercaptoimidazole], the IC50 in data set [1] was found to be 5500 µM. Consider `Sc1ncc(CCc2ccccc2)[nH]1` [5-(2-Phenylethyl)-2-mercaptoimidazole], for which the IC50 in data set [1] stood at 17 µM.

For `Sc1ncc(-c2ccc(Cl)cc2)[nH]1` [5-(4-Chlorophenyl)-2-mercaptoimidazole], the IC50 in data set [1] was found to be 100 µM.

Regarding `NNCc1ccccc1` [benzylhydrazine], in data set [2], the “DBH inhibition (in words)” value was “apparently act as competitive inhibitors”. With `Sc1ncc(CCCc2ccccc2)[nH]1` [5-(3-Phenylpropyl)-2-mercaptoimidazole], the IC50 in data set [1] worked out at 10 µM. With `CCCCc1ccc(C(N)=O)nc1` [Bupicomide, 5-(n-butyl)picolinamine], in data set [4], the “antihypertensive or vasodilator activity” value is “has antihypertensive activity”. Besides, the “DBH inhibition (in words)” value in data set [2] is listed as “DBH inhibitor”.

As to `COc1ccc(-c2cnc(S)[nH]2)cc1` [5-(4-Methoxyphenyl)-2-mercaptoimidazole], in data set [1], the DBH inhibition stood at 38%. As for `O=C(O)c1ccc(CCC(Br)CBr)cn1` (centres unmarked) [5-(3,4-dibromobutyl)picolinic acid], in data set [2], the “DBH inhibition (in words)” value is listed as “DBH inhibitors”. Take `COc1ccc(Cc2cnc(S)[nH]2)cc1` [5-(4-Methoxybenzyl)-2-mercaptoimidazole]: the DBH inhibition in data set [1] is on record as 36%. Consider `Oc1ccc(CCc2cnc(S)[nH]2)cc1` [5-(2-(4-Hydroxyphenyl)ethyl)-2-mercaptoimidazole], for which the 50% inhibitory concentration (IC50) in data set [1] was found to be 400 µM.

In the case of phenylpicolinic acid, the “DBH inhibitory activity relative to fusaric acid” value in data set [2] (Runti et al.) is on record as “twice the inhibitory activity of fusaric acid”.

Take `NOCc1ccccc1` [Benzyloxyamine]: in data set [2], the “DBH inhibition (in words)” value is on record as “apparently act as competitive inhibitors”. With `NCCc1ccc(O)c(O)c1` [DA, dopamine], the “antihypertensive or vasodilator activity” value in data set [4] is listed as “selective vasodilator activity at certain concentrations”. In the case of `COc1ccc(CCCCc2cnc(S)[nH]2)cc1` [5-(4-(4-Methoxyphenyl)butyl)-2-mercaptoimidazole], the IC50 in data set [1] was determined as 100 µM. `COc1ccc(CCc2cnc(S)[nH]2)cc1` [5-(2-(4-Methoxyphenyl)ethyl)-2-mercaptoimidazole]: the DBH inhibition in data set [1] is 8.4%.

Turning to `Sc1ncc(CCCCc2ccccc2)[nH]1` [5-(4-Phenylbutyl)-2-mercaptoimidazole], the concentration for half-maximal inhibition (IC50) in data set [1] came out at 100 µM. In the case of `Oc1ccc(CCCCc2cnc(S)[nH]2)cc1` [5-(4-(4-Hydroxyphenyl)butyl)-2-mercaptoimidazole], the DBH inhibition in data set [1] was 24%. Take `CCCCc1ccc(C(=O)O)nc1` [Fusaric acid]: in data set [5], the hepatotoxicity entry is reported as “hepatotoxic”.
